doi:10.1101/2024.04.30.591959v2, “Structural insights into human propionyl-CoA carboxylase (PCC) and 3-methylcrotonyl-CoA carboxylase (MCC)” (biorxiv, 2024)

Key:
Assay in all cases: cryo-EM structure, […] Å
Format in all cases: binding
[1] = biological target: T1, human MCC holoenzyme (Homo sapiens, UniProt Q9HCC0); conditions: 10 mM acetyl-CoA, 25 mM NaHCO3, 10 mM MgCl2, 10 mM ATP, pH 7.4; CT-domain acyl-CoA pocket; not the natural substrate
T1 construct: gene MCCC2; endogenous untagged holoenzyme, native purification from Expi 293F cells on Strep-Tactin XT via covalently linked biotin (K681 of MCCα); α6β6 dodecamer; acyl-CoA site between CT-C of one β and CT-N of another β; with Methylcrotonoyl-CoA carboxylase subunit alpha, mitochondrial
T1 sequence (Q9HCC0 23-563): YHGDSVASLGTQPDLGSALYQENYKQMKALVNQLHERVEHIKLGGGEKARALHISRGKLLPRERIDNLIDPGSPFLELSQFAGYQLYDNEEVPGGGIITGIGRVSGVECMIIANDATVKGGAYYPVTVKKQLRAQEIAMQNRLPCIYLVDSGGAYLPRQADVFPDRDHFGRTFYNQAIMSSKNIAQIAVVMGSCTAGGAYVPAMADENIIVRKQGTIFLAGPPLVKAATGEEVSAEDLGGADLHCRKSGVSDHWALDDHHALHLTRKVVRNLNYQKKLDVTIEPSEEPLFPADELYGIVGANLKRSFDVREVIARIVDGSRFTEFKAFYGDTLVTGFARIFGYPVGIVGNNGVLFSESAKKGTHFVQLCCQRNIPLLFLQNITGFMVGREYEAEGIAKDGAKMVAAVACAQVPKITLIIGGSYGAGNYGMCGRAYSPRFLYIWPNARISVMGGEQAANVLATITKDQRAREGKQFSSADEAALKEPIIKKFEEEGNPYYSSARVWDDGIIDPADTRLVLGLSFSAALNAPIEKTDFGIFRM
T1 sequence (Q96RQ3 42-725 partner): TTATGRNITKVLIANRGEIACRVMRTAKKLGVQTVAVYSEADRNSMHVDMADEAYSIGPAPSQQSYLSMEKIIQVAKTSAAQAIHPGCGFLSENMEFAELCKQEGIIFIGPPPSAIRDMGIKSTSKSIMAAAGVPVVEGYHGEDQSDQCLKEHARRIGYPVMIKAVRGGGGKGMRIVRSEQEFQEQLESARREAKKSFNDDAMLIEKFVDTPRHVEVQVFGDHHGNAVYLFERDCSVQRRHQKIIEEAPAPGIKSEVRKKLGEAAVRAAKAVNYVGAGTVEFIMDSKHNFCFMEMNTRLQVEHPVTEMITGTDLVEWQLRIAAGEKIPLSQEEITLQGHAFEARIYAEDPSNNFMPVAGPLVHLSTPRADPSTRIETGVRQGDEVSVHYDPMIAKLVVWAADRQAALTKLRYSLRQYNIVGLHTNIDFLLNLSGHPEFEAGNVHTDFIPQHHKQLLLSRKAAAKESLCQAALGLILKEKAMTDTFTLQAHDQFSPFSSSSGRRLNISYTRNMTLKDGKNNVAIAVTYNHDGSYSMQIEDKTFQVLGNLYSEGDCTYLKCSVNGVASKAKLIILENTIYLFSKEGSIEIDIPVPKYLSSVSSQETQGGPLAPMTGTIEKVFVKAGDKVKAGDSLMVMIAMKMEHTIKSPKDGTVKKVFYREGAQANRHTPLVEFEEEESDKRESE

[2] = biological target: T2, human PCC holoenzyme (Homo sapiens, UniProt P05166); conditions: 10 mM acetyl-CoA, 25 mM NaHCO3, 10 mM MgCl2, 10 mM ATP, pH 7.4; CT-domain active site; acyl group not resolved in map
T2 construct: gene PCCB; endogenous untagged holoenzyme, native purification from Expi 293F cells on Strep-Tactin XT via covalently linked biotin (K694 of PCCα); α6β6 dodecamer; acyl-CoA site between CT-C of one β and CT-N of another β; with Propionyl-CoA carboxylase alpha chain, mitochondrial
T2 sequence (P05166 29-539): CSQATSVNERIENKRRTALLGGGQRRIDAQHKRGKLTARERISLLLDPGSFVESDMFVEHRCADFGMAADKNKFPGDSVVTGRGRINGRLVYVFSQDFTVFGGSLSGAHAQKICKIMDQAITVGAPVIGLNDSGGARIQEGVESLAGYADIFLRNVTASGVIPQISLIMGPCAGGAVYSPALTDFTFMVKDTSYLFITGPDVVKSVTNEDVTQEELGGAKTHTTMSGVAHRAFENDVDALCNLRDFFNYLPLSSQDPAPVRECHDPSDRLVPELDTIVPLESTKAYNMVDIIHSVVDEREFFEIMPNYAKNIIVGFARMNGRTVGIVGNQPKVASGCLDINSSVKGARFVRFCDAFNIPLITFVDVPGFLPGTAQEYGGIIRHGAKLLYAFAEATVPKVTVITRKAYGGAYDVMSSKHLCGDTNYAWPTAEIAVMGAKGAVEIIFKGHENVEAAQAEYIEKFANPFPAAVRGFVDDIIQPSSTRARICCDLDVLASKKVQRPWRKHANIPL
T2 sequence (P05165 53-728 partner): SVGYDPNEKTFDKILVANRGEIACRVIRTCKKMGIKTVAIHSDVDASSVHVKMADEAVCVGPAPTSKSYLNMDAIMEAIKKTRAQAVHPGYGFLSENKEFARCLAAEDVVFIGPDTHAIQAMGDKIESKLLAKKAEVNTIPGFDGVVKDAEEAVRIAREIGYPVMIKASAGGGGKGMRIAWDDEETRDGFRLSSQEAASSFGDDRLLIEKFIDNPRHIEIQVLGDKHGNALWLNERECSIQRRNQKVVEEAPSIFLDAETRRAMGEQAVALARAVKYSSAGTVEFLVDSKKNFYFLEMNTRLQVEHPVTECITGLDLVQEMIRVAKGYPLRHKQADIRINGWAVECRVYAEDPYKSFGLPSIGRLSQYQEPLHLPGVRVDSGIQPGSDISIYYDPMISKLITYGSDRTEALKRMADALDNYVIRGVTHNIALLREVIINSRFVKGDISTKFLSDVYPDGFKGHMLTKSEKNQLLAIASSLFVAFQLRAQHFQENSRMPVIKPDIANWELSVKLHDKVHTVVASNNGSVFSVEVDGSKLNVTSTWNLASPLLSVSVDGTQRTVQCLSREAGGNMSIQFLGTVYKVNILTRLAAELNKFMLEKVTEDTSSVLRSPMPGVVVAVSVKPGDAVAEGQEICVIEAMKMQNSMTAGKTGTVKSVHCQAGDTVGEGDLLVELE

[3] = biological target: T2, human PCC holoenzyme; conditions: 10 mM propionyl-CoA, 25 mM NaHCO3, 10 mM MgCl2, 10 mM ATP, pH 7.4; CT-domain active site; acyl group not resolved in map

CC(=O)SCCNC(=O)CCNC(=O)[C@H](O)C(C)(C)COP(=O)(O)OP(=O)(O)OC[C@H]1O[C@@H](n2cnc3c(N)ncnc32)[C@H](O)[C@@H]1OP(=O)(O)O [acetyl-CoA]
cryo-EM structure, 2.85 Å [1]: PCC and MCC holoenzymes in the acetyl-CoA-bound state (referred to as PCC-ACO and MCC-ACO) | cryo-EM structure, 3.38 Å [2]: The acetyl-CoA in the PCC-ACO structure has a binding mode similar to the propionyl-CoA

CCC(=O)SCCNC(=O)CCNC(=O)[C@H](O)C(C)(C)COP(=O)(O)OP(=O)(O)OC[C@H]1O[C@@H](n2cnc3c(N)ncnc32)[C@H](O)[C@@H]1OP(=O)(O)O [propionyl-CoA]
cryo-EM structure, 2.80 Å [3]: six propionyl-CoA molecules are observed binding to the six active sites of CT domains
